Data reported in article PMC12067444, “Synthesis and Pharmacological Characterization of Novel Peripheral Cannabinoid-1 Receptor Blockers Based on a Tricyclic Scaffold” (Journal of Medicinal Chemistry, 2025).
Where two headings read alike, the source gives them in different places.

Columns and labels:
human CB2R = biological target: T1, human CB2R (Homo sapiens, UniProt P34972); experiment: Radioligand competition displacement binding, [3H]CP-55,940, membranes with human CB2R; conditions: [3H]CP-55,940 displacement, read-out: CB2R hKi
T1 construct: purchased PerkinElmer; Charles River RBXCB2M400UA; A618
Protocol: BNS compounds’ binding to CB1R and CB2R was assessed in competition displacement assays using [^3H]CP-55,940 as the radioligand and crude membranes from mouse brain or human cells overexpressing the CB1R or CB2R. All data were in triplicates with Ki values determined from three independent experiments. See SI for a detailed procedure.
Supplementary Experimental Methods […]
CB1R and CB2R binding. Binding to the CB1R/CB2R was asse ss ed using competition displacement as says with [ 3H] CP -55,940 as the radioligand. Purified membranes from the mouse brain were utilized for CB1R assessment (as described above). Purified […]
membranes from cells overexpressing human CB2R ( Char les River CAT # A618) w e r e employed for CB2R evaluation. […]
Radioligand binding assays were performed to asse ss the binding affinity of the different compounds to hCB1R (RBHCB1M4 00UA; Per kinElmer) or hCB 2R
(RBXCB2 M400UA; PerkinElmer). Competition displacement as says w ere employed, […]
utilizing [3H] C P -55,940 as the radioligand and crude membranes from humans for CB1 R or CB2 R. T he compounds were tested at various concentrations (eight points with a five-fold serial dilution starting at two m M) , and their ability to displace [3H] CP - 55, 940 was evaluated. Upon completion of the binding assays, the reaction mixture was filtered through GF/C plates, followed by four washes with cold wash buffer. After drying for one hour, 50 μL of Perkin Elmer Microscint 20 cocktail was added to the filter plate wells, and the bound [3H] C P -55,940 radioligand was measured using a β counter. All data points were duplicated, and Ki values were determined from two independent experiments using GraphPad Prism 7.02 analysis software, extracted through nonlinear regression analysis. […]
MgCl 2. The tissue was homogenized using a glass -Teflon and Hei-T ORQUE 200 homogenizer (Heidolph; Cat#17- 012- 002- 25 -1) set to 132 rpm. The resulting suspen sion underwent centrifugation at 48,000 × g for 20 min at four °C, and the supernatant was discarded. The pellet obtained was homogenized again and subjected to a second centrifugation under the same conditions. Subsequently, the resulting pellet […]
mM EGTA, 9 mM MgCl 2, and 150 mM NaCl, followed by homogenization. The protein concentration of the suspension was determined using the BCA assay, and the suspen sion was diluted to a final concentration of 2 mg/mL in assay buffer. The prepared suspension was aliquoted on ice and stored at - 80 °C for further use.

P-gp (MDR1) = P-gp (MDR1) (Homo sapiens, UniProt P08183); experiment: Bidirectional permeability in MDR1-MDCKII cells with and without GF120918; conditions: dog; for Papp A→B at 2.5 h / Papp B→A at 2.5 h / efflux ratio at 2.5 h: MDCK-MDR1
Protocol: (§1) MDR1-MDCKII cells were seeded onto […] (PET) in a 96-well insert system. Test and reference compounds were administered to the apical (A-to-B) and basolateral (B-to-A) sides of the cell monolayer. Permeation of the compounds in both directions was assessed, with and without a P-glycoprotein (P-gp) inhibitor (GF120918). […] After a 2.5-h incubation period, each compound’s permeability and efflux ratio were calculated as described in the SI. […]
(§2) Bidirectional permeability assessment in MDR1-MDCK cells. Test and reference compounds were quantified using LC -MS/MS ana lysis based on th e peak ar ea r atio of analyte to internal standard (IS). T he apparent permeability coefficient (Papp) in cm/s was computed using the equation: Pa pp = (dCr/d t ) × V r / ( A × C 0), where dCr/ d t […]
(§3) represents the cumulative concentration of the compound in the receiver chamber over time (µM/s), Vr is the solution volume in the receiver chamber (0.075 mL on the apical side, 0.25 mL on the basolateral side), A is the surface area for transport (0.0804 cm2 f or the monolayer ar ea), and C0 is the initial concentration in the donor chamber ( µM) .
(§4) The efflux ratio was determined using the equation Efflux Ratio = P a pp ( B:
(§5) A ) / Pa pp (A: B) . […]
(§6) Additionally, the percent of lucifer yellow in the basolateral well was calculated using the equation:
(§7) Lucif er yellow = VV bbbbbbbbbbbbbbbbbbbb ×RR FFFF bbbbbbbbbbbbbbbbbbbb ×100 VV bbaaaaaa bbbb ×RRRRRR bbaaaaaa bbbb+VV bbbbbbbbbbbbbbbbbbbb ×RRFFFF bbbbbbbbbbbbbbbbbbbb wher e RFUApical and RFUBasolateral demote the r elative f luor escence unit values of lucif er yellow in the apical and basolateral wells, respectively, and VApical and VBasolateral represent the volumes of apical and basolateral wells (0.075 mL and 0.25 mL, r espectively) . T he % Lucif er Yellow should be less than 2, indicating minimal leakage. […]

P-gp (MDR1-MDCKII cells) = P-gp (MDR1-MDCKII cells) (Homo sapiens, UniProt P08183); experiment: as above; conditions: for P-gp substrate: MDR1-MDCKII cells; for Rank Papp: MDR1-MDCKII permeability rank
Protocol: as §1, §2, §3, §4, §5, §6, §7

[1] = Tissue distribution after acute oral administration; type: in vivo, mouse; conditions: for Kp at 1 h: male, C57Bl/6J, mouse, in vivo, 1 mg/kg PO, 1 h post-acute administration
Protocol: Male C57Bl/6J mice aged 7–9 weeks (3–4 mice per compound) were fasted overnight before administering each test compound. The compounds were accurately weighed and mixed with an appropriate vehicle to prepare a clear oral solution. The formulations were freshly prepared on the dosing day, and the mice were administered the compound via oral gavage within 4 h of formulation preparation. 1, 2, 4, and 8 h after compound administration, the mice were euthanized, and approximately 200 μL of blood was collected via cardiac puncture for plasma preparation. Brain and liver tissues were harvested and processed for analysis. Sample analysis was performed using LC-MS/MS, as described in detail in the SI. […]
calculated using the equation:
Lucif er yellow = VV bbbbbbbbbbbbbbbbbbbb ×RR FFFF bbbbbbbbbbbbbbbbbbbb ×100 […]
Measurements of BNS808 using LC-MS/MS. MS/MS analyses were conducted using a Sciex QTRAP® 6500+ mass spectrometer (Framingham, MA, USA). Air was […]
Infinity 1031 nitrogen generator (Peak Scientific, Inchinnan, Scotland). Purified air […]
generator to ensure a continuous and stable air supply.

[2] = MDCK-MDR1, Mean recovery % A to B, without GF120918
[3] = MDCK-MDR1, Mean recovery % B to A, without GF120918

Chain of P-gp (MDR1-MDCKII cells) (P08183 whole entry): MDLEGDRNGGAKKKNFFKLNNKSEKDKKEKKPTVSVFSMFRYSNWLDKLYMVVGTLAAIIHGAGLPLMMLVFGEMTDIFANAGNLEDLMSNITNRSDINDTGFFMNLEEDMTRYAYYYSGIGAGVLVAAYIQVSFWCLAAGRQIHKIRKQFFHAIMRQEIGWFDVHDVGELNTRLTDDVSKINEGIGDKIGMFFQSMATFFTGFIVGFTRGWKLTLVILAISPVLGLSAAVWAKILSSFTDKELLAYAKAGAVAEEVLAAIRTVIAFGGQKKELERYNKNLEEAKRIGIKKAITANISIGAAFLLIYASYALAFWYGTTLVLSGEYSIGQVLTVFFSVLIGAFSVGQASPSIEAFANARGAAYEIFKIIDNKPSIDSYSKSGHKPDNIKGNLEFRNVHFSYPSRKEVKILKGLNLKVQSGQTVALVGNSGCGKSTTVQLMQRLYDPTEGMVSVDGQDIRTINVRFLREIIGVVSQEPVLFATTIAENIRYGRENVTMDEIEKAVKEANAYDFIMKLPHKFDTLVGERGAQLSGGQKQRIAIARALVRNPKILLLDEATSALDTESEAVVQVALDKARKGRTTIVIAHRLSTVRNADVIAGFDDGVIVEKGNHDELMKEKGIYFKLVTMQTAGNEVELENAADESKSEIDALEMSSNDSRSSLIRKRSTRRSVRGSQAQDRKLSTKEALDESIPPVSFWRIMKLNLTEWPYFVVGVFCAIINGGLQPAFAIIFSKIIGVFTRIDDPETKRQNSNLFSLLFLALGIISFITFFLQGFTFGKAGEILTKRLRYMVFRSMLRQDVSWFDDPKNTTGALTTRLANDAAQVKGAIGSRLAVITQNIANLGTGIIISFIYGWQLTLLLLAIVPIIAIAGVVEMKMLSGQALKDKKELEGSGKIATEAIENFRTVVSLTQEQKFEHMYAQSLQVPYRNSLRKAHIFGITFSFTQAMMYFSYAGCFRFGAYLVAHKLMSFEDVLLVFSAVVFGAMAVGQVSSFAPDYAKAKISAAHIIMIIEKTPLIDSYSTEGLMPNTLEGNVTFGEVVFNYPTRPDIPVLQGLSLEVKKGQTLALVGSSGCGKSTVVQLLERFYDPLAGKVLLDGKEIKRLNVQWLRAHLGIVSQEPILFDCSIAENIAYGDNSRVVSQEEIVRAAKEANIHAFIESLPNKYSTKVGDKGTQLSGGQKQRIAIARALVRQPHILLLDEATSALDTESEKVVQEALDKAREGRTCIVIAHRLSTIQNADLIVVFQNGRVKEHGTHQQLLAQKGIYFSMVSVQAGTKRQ
Chain of P-gp (MDR1) (P08183 whole entry): as above
T1 sequence (P34972 whole entry): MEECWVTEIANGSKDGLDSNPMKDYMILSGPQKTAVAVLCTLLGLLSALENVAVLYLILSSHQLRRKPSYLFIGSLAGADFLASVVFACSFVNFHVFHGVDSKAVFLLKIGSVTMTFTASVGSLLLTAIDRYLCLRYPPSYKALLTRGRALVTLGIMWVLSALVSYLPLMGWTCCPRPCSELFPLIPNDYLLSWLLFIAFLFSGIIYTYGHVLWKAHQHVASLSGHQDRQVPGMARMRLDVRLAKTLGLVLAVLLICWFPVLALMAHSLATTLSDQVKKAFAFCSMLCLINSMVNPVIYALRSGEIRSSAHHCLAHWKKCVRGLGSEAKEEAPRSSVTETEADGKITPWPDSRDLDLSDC

| Structure (SMILES) | Ki (human CB2R) | Papp A→B at 2.5 h (P-gp (MDR1)) | Papp B→A at 2.5 h (P-gp (MDR1)) | efflux ratio at 2.5 h (P-gp (MDR1)) | recovery at 2.5 h (P-gp (MDR1); MDCK-MDR1, Mean recovery % A to B, with GF120918) | recovery at 2.5 h (P-gp (MDR1); [2]) | recovery at 2.5 h (P-gp (MDR1); MDCK-MDR1, Mean recovery % B to A, with GF120918) | recovery at 2.5 h (P-gp (MDR1); [3]) | Papp A:B (P-gp (MDR1-MDCKII cells); A to B, without GF120918) | P-gp substrate (P-gp (MDR1-MDCKII cells)) | Rank Papp (P-gp (MDR1-MDCKII cells)) | liver concentration ([1]; 1 mg/kg PO acute, time point not stated) | brain concentration, average over time points ([1]; 1 mg/kg PO single acute dose, lean C57Bl/6 mice, 1, 2, 4, 8 h) | Kp at 1 h ([1]; read-out: brain-to-plasma (B/P) ratio) | Kp at 1 h ([1]; read-out: liver/plasma (L/P) ratio) | recovery at 2.5 h (P-gp (MDR1); MDCK-MDR1, with GF120918 (concentration not stated), Mean recovery % A to B, with GF120918) | recovery at 2.5 h (P-gp (MDR1); MDCK-MDR1, with GF120918 (concentration not stated), Mean recovery % B to A, with GF120918) |
| --- | --- | --- | --- | --- | --- | --- | --- | --- | --- | --- | --- | --- | --- | --- | --- | --- | --- |
| O=S(=O)(NC1CCCOc2c1nn(-c1ccccc1Cl)c2-c1ccc(Cl)cc1)c1ccc(Cl)cc1 (centres unmarked) [BNS808, 4-chloro-N-[2-(2-chlorophenyl)-3-(4-chlorophenyl)-5,6,7,8-tetrahydrooxepino[3,2-c]pyrazol-8-yl]benzenesulfonamide] | 1930 nM | 0.26 ×10⁻⁶ cm/s | 1.01 ×10⁻⁶ cm/s | 3.95 | 7.87% | 7.9% | 23.4% | 15.3% | 0.26 ×10^–6 cm/s | P-gp substrate and P-gp substrates and yes | Low | ~200 ng/g | 13.7 ng/g | 0.18 | 3.62 |  |  |
| CS(=O)(=O)N1CCC(C(=O)NC2CCCOc3c2nn(-c2ccccc2Cl)c3-c2ccc(Cl)cc2)CC1 (centres unmarked) [BNS815, N-[2-(2-Chlorophenyl)-3-(4-chlorophenyl)-5,6,7,8-tetrahydrooxepino[3,2-c]pyrazol-8-yl]-1-methylsulfonyl-piperidine-4-carboxamide] | 6310 nM | 10.1 ×10⁻⁶ cm/s | 18.9 ×10⁻⁶ cm/s | 1.87 |  | 75.2% |  | 76.1% |  | yes | Hi gh |  |  |  |  | 63.8% | 77.6% |
| Cc1ccc(S(=O)(=O)NC2CCCOc3c2nn(-c2ccccc2Cl)c3-c2ccc(Cl)cc2)cc1 (centres unmarked) [BNS807] | 1650 nM |  |  |  |  |  |  |  |  |  |  |  |  |  |  |  |  |
